Calls of active or inactive are those of the source. The calls are words filed in the database; no cut-off is given here.
Legend:
[1] = target: GABA-A receptor; anion channel; assay: In vitro binding affinity for GABA-A receptor in rat cortical or hippocampal membranes using [3H]flunitrazepam
Mus musculus [2] = assay: Tested for inhibition of pentylenetetrazole induced seizures in mice; Value is 1/16 of the LD50 range; format: functional
Glutamate NMDA receptor = assay: Inhibition of [3H]CPP binding to N-methyl-D-aspartate glutamate receptor of rat cortical or hippocampal membranes; format: cell membranes, Membrane
Mus musculus [3] = assay: Tested for inhibition of maximal electroshock -induced seizures in mice; Value is 1/8 of the LD50 range; format: functional
[4] = Tested for acute toxicity in mice after intraperitoneal administration; Value ranges from 400-800 mg/kg; format: organism-based; details: mouse, in vivo, ip
Mus musculus [5] = assay: Tested for inhibition of pentylenetetrazole induced seizures in mice; Value is 1/4 of the LD50 range; format: functional
Gerbillinae [6] = assay: Tested for its effect on Hypoxia induced neuronal damage; format: functional
Gerbillinae [7] = assay: Tested for its effect on hippocampal neuronal damage in gerbils activity; format: functional
[8] = Tested for acute toxicity in mice after intraperitoneal administration; format: organism-based; details: mouse, in vivo, ip
Mus musculus [9] = assay: Tested for inhibition of maximal electroshock -induced seizures in mice; Value is 1/16 of the LD50; format: functional
Mus musculus [10] = assay: Tested for inhibition of pentylenetetrazole induced seizures in mice; Value is 1/16 of the LD50; format: functional
Mus musculus [11] = assay: Tested for inhibition of quinoline-induced seizures in mice; g = maximum effect, 50% at 20 mg/kg; format: functional, organism-based; parameters: dose 20 mg/kg
Mus musculus [12] = species: Mus musculus; assay: Tested for inhibition of pentylenetetrazole induced seizures in mice.; format: functional
Mus musculus [13] = species: Mus musculus; assay: Tested for inhibition of 3-mercaptopropanoic acid induced seizures in mice.; format: functional
Mus musculus [14] = species: Mus musculus; assay: Tested for inhibition of bicuculline induced seizures in mice.; format: functional
Mus musculus [15] = species: Mus musculus; assay: Tested for inhibition of strychnine-induced seizures in mice.; format: functional
Mus musculus [16] = species: Mus musculus; assay: Tested for inhibition of maximal electroshock -induced seizures in mice.; format: functional
Mus musculus [17] = species: Mus musculus; assay: Tested for inhibition of quinoline-induced seizures in mice.; format: functional
[18] = (§1) Tested for acute toxicity in mice after intraperitoneal administration; Value ranges from 200-400 mg/kg; format: organism-based; details: mouse, in vivo, ip
[19] = Tested for acute toxicity in mice after intraperitoneal administration; Value ranges from 100-200 mg/kg; format: organism-based; details: mouse, in vivo, ip
Mus musculus [20] = assay: Tested for inhibition of pentylenetetrazole induced seizures in mice; Value is 1/8 of the LD50 range; format: functional
Mus musculus [21] = species: Mus musculus; assay: Tested for inhibition of pentylenetetrazole induced seizures in mice; Value ranges from 100-200; format: functional
Mus musculus [22] = assay: Tested for inhibition of maximal electroshock -induced seizures in mice; Value is 1/4 of the LD50 range; format: functional
Mus musculus [23] = assay: Tested for inhibition of pentylenetetrazole induced seizures in mice; Value is 1/8 of the LD50; format: functional
[24] = Tested for acute toxicity in mice after intraperitoneal administration; Value ranges from 400-800; format: organism-based; details: mouse, in vivo, ip
Mus musculus [25] = assay: as §1; format: functional; details: ip
Mus musculus [26] = species: Mus musculus; assay: Tested for inhibition of maximal electroshock -induced seizures in mice; Value ranges from 13-25; format: functional

## CCn1c(-c2cccc(C(F)(F)F)c2)nn(C)c1=O
[1]
  IC50: > 100 µM
Mus musculus [2]
  Activity: 50 mg/kg
Glutamate NMDA receptor
  IC50: > 100 µM
Mus musculus [3]
  Activity: 100 mg/kg
[4]
  LD50: 800 mg/kg

## COc1ccc(-c2nn(C)c(=O)n2C)cc1
[4]
  LD50: 800 mg/kg

## CCn1c(-c2ccccc2)nn(C)c1=O
Mus musculus [3]
  Activity: 100 mg/kg
[4]
  LD50: 800 mg/kg
Mus musculus [5]
  Activity: 200 mg/kg

## Cl.c1ccc(C2(N3CCCCC3)CCCCC2)cc1 [PHENCYCLIDINE HYDROCHLORIDE]
Gerbillinae [6]
  Damage score: <1.14
Gerbillinae [7]
  Damage score: 1.06

## CCn1nc(-c2cccs2)n(C)c1=O
[4]
  LD50: 800 mg/kg

## COc1ccc(-c2nnc(O)n2C)cc1
[8]
  LD50: > 800 mg/kg

## CCCn1nc(-c2ccc(Cl)cc2)n(CC)c1=O
[4]
  LD50: 800 mg/kg

## Cn1c(O)nnc1-c1ccc(F)cc1
[1]
  IC50: > 100 µM
Glutamate NMDA receptor
  IC50: > 100 µM
Mus musculus [9]
  Activity: >50 mg/kg
[8]
  LD50: > 800 mg/kg
Mus musculus [10]
  Activity: >50 mg/kg

## Cn1c(O)nnc1-c1ccccc1F
Mus musculus [2]
  Activity: >50 mg/kg
[8]
  LD50: > 800 mg/kg

## CCn1nc(-c2ccc(Cl)cc2)n(C)c1=O
Mus musculus [2]
  Activity: 50 mg/kg
[4]
  LD50: 800 mg/kg

## Cn1c(O)nnc1-c1ccccc1
[1]
  IC50: > 100 µM
Mus musculus [2]
  Activity: >50 mg/kg
Glutamate NMDA receptor
  IC50: > 100 µM
Mus musculus [3]
  Activity: >100 mg/kg
[8]
  LD50: > 800 mg/kg

## O=C1NC(=O)C(c2ccccc2)(c2ccccc2)N1 [PHENYTOIN]
Mus musculus [11]
  ED50: Active
Mus musculus [12]
  ED50: > 32 mg/kg
Mus musculus [13]
  ED50: 89 mg/kg
Mus musculus [14]
  ED50: > 200 mg/kg
Mus musculus [15]
  ED50: > 200 mg/kg
Mus musculus [16]
  ED50: 26 mg/kg

## CCn1c(-c2ccc(Cl)cc2)nn(C)c1=O
Gerbillinae [6]
  Damage score: 0.97
[1]
  IC50: > 100 µM
Mus musculus [12]
  ED50: 17 mg/kg
Mus musculus [2]
  Activity: 20 mg/kg
Glutamate NMDA receptor
  IC50: > 100 µM
Mus musculus [13]
  ED50: 31 mg/kg
Mus musculus [17]
  ED50: 26 mg/kg
[18]
  LD50: 400 mg/kg
Mus musculus [14]
  ED50: 15 mg/kg
Mus musculus [3]
  Activity: 50 mg/kg
Gerbillinae [7]
  Damage score: 0.33
Mus musculus [15]
  ED50: ~101 mg/kg
Mus musculus [16]
  ED50: 48 mg/kg

## Cn1nc(-c2ccccc2)n(C)c1=S
[19]
  LD50: 200 mg/kg

## CN[C@H](CC(=O)O)C(=O)O [N-METHYL-D-ASPARTIC ACID (NMDA)]
Glutamate NMDA receptor
  IC50: 6 µM

## Cn1c(O)nnc1-c1ccncc1
[1]
  IC50: > 100 µM
Glutamate NMDA receptor
  IC50: > 100 µM
[8]
  LD50: > 800 mg/kg

## CCn1nc(-c2ccc(Cl)cc2)n(CC)c1=O
Mus musculus [20]
  Activity: 50 mg/kg
[18]
  LD50: 400 mg/kg
Mus musculus [3]
  Activity: 50 mg/kg

## CCCC(CCC)C(=O)O [VALPROIC ACID]
Mus musculus [17]
  ED50: > 256 mg/kg
Mus musculus [14]
  ED50: 28 mg/kg
Mus musculus [21]
  ED50: 200 mg/kg
Mus musculus [15]
  ED50: > 200 mg/kg
Mus musculus [16]
  ED50: > 200 mg/kg

## Cn1c(O)nnc1-c1ccc(Cl)c(Cl)c1
[1]
  IC50: > 100 µM
Mus musculus [22]
  Activity: 100 mg/kg
Glutamate NMDA receptor
  IC50: > 100 µM
[18]
  LD50: 400 mg/kg
Mus musculus [5]
  Activity: 100 mg/kg

## CCCCOc1cc(-c2nnc(O)n2C)ccc1OC
[19]
  LD50: 200 mg/kg

## Cn1nc(-c2ccc(Cl)c(Cl)c2)n(C)c1=O
[19]
  LD50: 200 mg/kg
Mus musculus [12]
  Activity: 50 mg/kg
Mus musculus [16]
  Activity: 50 mg/kg

## CCC1(c2ccccc2)C(=O)NC(=O)NC1=O [PHENOBARBITAL]
Mus musculus [12]
  ED50: 24 mg/kg
Mus musculus [13]
  ED50: 30 mg/kg
Mus musculus [17]
  ED50: 52 mg/kg
Mus musculus [14]
  ED50: 9 mg/kg
Mus musculus [15]
  ED50: 52 mg/kg
Mus musculus [16]
  ED50: 20 mg/kg

## CCn1c(O)nnc1-c1ccccc1
Mus musculus [23]
  Activity: >100 mg/kg
[8]
  LD50: > 800 mg/kg

## Cc1ccc(-c2nnc(O)n2C)cc1
Mus musculus [23]
  Activity: >100 mg/kg
[8]
  LD50: > 800 mg/kg

## Cn1nc(-c2ccccc2F)n(C)c1=O
Mus musculus [20]
  Activity: 100 mg/kg
[4]
  LD50: 800 mg/kg

## Cn1nc(-c2ccccc2)n(C)c1=O
Mus musculus [20]
  Activity: 100 mg/kg
[4]
  LD50: 800 mg/kg

## Oc1n[nH]c(-c2ccccc2)n1
[8]
  LD50: > 800 mg/kg

## CCn1nc(-c2ccccc2)n(C)c1=O
Mus musculus [20]
  Activity: 100 mg/kg
[4]
  LD50: 800 mg/kg

## Cn1nc(-c2ccc(Cl)cc2)n(C)c1=O
[1]
  IC50: > 100 µM
Mus musculus [2]
  Activity: 50 mg/kg
Glutamate NMDA receptor
  IC50: > 100 µM
Mus musculus [3]
  Activity: 100 mg/kg
[4]
  LD50: 800 mg/kg

## Cn1nc(-c2ccccc2)nc1O
Mus musculus [20]
  Activity: 100 mg/kg
[24]
  LD50: 800 mg/kg

## Cn1nc(-c2cccs2)n(C)c1=O
[4]
  LD50: 800 mg/kg

## Cc1ccc(-c2nn(C)c(=O)n2C)cc1
[4]
  LD50: 800 mg/kg

## Cn1nc(-c2ccc(F)cc2)n(C)c1=O
Mus musculus [22]
  Activity: 200 mg/kg
[4]
  LD50: 800 mg/kg
Mus musculus [5]
  Activity: 200 mg/kg

## CCCCOc1cc(-c2nn(C)c(=O)n2C)ccc1OC
Mus musculus [20]
  Activity: 100 mg/kg
[1]
  IC50: 33.2 µM
Glutamate NMDA receptor
  IC50: > 100 µM
[4]
  LD50: 800 mg/kg

## Cn1c(O)nnc1-c1ccc(Cl)cc1
[1]
  IC50: > 100 µM
Glutamate NMDA receptor
  IC50: > 100 µM
Mus musculus [9]
  Activity: >50 mg/kg
[8]
  LD50: > 800 mg/kg
Mus musculus [10]
  Activity: >50 mg/kg

## COc1nnc(-c2ccccc2)n1C
[8]
  LD50: > 800 mg/kg

## Cn1c(O)nnc1-c1ccccc1Cl
Gerbillinae [6]
  Damage score: 2.95
[1]
  IC50: > 100 µM
Mus musculus [2]
  Activity: 50 mg/kg
Glutamate NMDA receptor
  IC50: > 100 µM
Mus musculus [17]
  ED50: ~65 mg/kg
Mus musculus [3]
  Activity: 100 mg/kg
Gerbillinae [7]
  Damage score: 0.22
[24]
  LD50: 800 mg/kg

## O=C1CN=C(c2ccccc2Cl)c2cc([N+](=O)[O-])ccc2N1 [CLONAZEPAM]
Mus musculus [12]
  ED50: 0.06 mg/kg
Mus musculus [13]
  ED50: 0.2 mg/kg
Mus musculus [17]
  ED50: < 8 mg/kg
Mus musculus [14]
  ED50: 0.07 mg/kg
Mus musculus [15]
  ED50: 2 mg/kg
Mus musculus [16]
  ED50: 50 mg/kg

## Cn1nc(-c2ccccc2Cl)n(C)c1=O
Mus musculus [20]
  Activity: 50 mg/kg
Mus musculus [22]
  Activity: 200 mg/kg
[4]
  LD50: 800 mg/kg

## CCn1c(O)nnc1-c1cccc(C(F)(F)F)c1
Mus musculus [20]
  Activity: 50 mg/kg
[18]
  LD50: 400 mg/kg

## CCn1c(O)nnc1-c1ccc(Cl)cc1
Gerbillinae [6]
  Damage score: 2.64
[1]
  IC50: > 100 µM
Mus musculus [2]
  Activity: 25 mg/kg
Glutamate NMDA receptor
  IC50: > 100 µM
Mus musculus [17]
  ED50: ~51 mg/kg
Gerbillinae [7]
  Damage score: 0.33
Mus musculus [25]
  LD50: 400 mg/kg

## NC(=O)N1c2ccccc2C=Cc2ccccc21 [CARBAMAZEPINE]
Mus musculus [12]
  ED50: > 200 mg/kg
Mus musculus [13]
  ED50: 86 mg/kg
Mus musculus [17]
  ED50: 25 mg/kg
Mus musculus [26]
  ED50: 25 mg/kg
Mus musculus [15]
  ED50: 61 mg/kg

## Cn1c(O)nnc1-c1cccs1
[1]
  IC50: > 100 µM
Glutamate NMDA receptor
  IC50: > 100 µM
[18]
  LD50: 400 mg/kg

Source: ChEMBL document CHEMBL1124980, “2,4-Dihydro-3H-1,2,4-triazol-3-ones as anticonvulsant agents” (J Med Chem, 1990)
